Measurements published in patent US11795135B2, “Prostacyclin compounds, compositions and methods of use thereof” (Insmed Incorporated, priority 2013, dated 2023).
Entries after “also recorded” stand apart in the source; their conditions may differ. Blank lines part the entries; values can stand above or below the compound they belong to.

What was measured:
CHO-K1 cells = assay: CHO-K1 cell proliferation assay (Presto Blue); settings: unformulated alkyl esters, 48 hour incubation
Experimental: CHO-K1 cells were harvested when the cell monolayer was 50-90% confluent (use passage 4-11). Media was aspirated out of the flask, and cells were rinsed with 2 mL of F12 media. Next, 1 mL of pre-warmed (37° C.) 0.25% trypsin-EDTA (Life Technologies, Cat #: 25300054) was added, and cells were dislodged from the flask by tapping it on the side. Complete growth media (F12 (Life Technologies, Cat #: 31765092)+10% FBS (Hyclone, Cat #: SH30071.03)+1× Pen-Strep (Life Technologies, cat #15140-122) was then added at a volume of 10 mL. Cells were centrifuged at 250×g for 5 minutes at room temperature, and the media was aspirated. The cell pellet was resuspended in 10 mL complete growth media. Cell number was determined using a hemacytometer. Cells were then seeded at 2000 cells per well of a 96-well plate in 100 μL of complete growth media. The plate was incubated overnight at 37° C. and 5% CO2 in a water-jacketed incubator.
The next day, 80 μL of fresh complete media was added to each well, and CHO-K1 cells were challenged with treprostinil compound and composition treatments. The working solutions were prepared at 10× concentration, and following 2 fold serial dilutions, 20 μL aliquots were added per well to arrive at a final 1× concentration. Following a 48 hour incubation at 37° C. and 5% CO2 in a water-jacketed incubator, the inhibitory effect on cell proliferation was determined. Plates were analyzed using 20 μL of Presto Blue reagent (Life Technologies, cat #: A13262) per well. The reagent was mixed, and plates were incubated for 1 hour at 37° C. and 5% CO2 in a water-jacketed incubator. Plates were read using either a CytoFluor Series 4000 (PerSeptive BioSystems) or Synergy Neo microplate reader (BioTek) with emission λ: 590 nm and excitation λ: 560 nm.
at concentrations ranging from 0.55 μM to 125 μM. Following a 48 hour incubation period, the inhibitory effect of the treprostinil derivative compositions on cell proliferation was determined.
C2, C3, C4, C5, C6, C8, C10 or Cu straight chain alkyl, at dosages ranging from 0.098 μM to 25 μM. Following a 48 hour incubation period, the inhibitory effect on cell proliferation was determined.
Following a 72 hour incubation period, the inhibitory effect on cell proliferation was determined. Following a 48 hour incubation period, the inhibitory effect on cell proliferation was determined.
Similarly, CHO-K1 cells were challenged with the treprostinil compositions T612 (R2=C2), T613 (R2=C8) at concentrations ranging from 1.41 μM to 180 μM.

[1] = Treprostinil alkyl ester conversion to treprostinil in dog lung tissue homogenate; assay type: in vitro ADME; settings: 37° C., 200 nM, 4 hours, 10 mg/mL of protein
Experimental: (§1) Treprostinil alkyl ester conversion to treprostinil was also measured in the presence of rat, dog and monkey lung tissue homogenate at 37° C. Here, data were calculated based on fit of exponential increase to the maximum (experiments performed in duplicate). The results of this study are provided below in Table 2A and FIG. 37. […] Both FIG. 37 experiments (left and right graphs) were performed in duplicate and the lines represent nonlinear exponential regression assuming 1 phase decay.

[2] = Treprostinil alkyl ester conversion to treprostinil in rat lung tissue homogenate; assay type: in vitro ADME; settings: 37° C., 200 nM, 4 hours, 10 mg/mL of protein
Experimental: as §1

[3] = test system: Rat alveolar NR8383 cells; assay: NR8383 cell proliferation assay (Presto Blue); assay type: cell-based; settings: unformulated alkyl esters, 72 hour incubation
Experimental: Rat alveolar NR8383 cells were harvested when the monolayer was 50-90% confluent (use passage 5-11). Because the NR8383 cells include both adherent and non-adherent cells, media was transferred to a 50 mL Falcon tube. To obtain the cells remaining in the flask, 2 mL of plain media was added, and the remaining cells were scraped out of the 75 cm^2 flask with a cell scraper and added to the 50 mL tube. […] SH30071.03)+1×Pen-Strep (Life Technologies, cat #: 15410-122)). Cell number was determined using a hemacytometer. […] Measurements and calculations were made as described above for the CHO-K1 cells.

[4] = Treprostinil alkyl ester conversion to treprostinil in monkey lung tissue homogenate; assay type: in vitro ADME; settings: 37° C., 200 nM, 4 hours, 10 mg/mL of protein
Experimental: as §1

[5] = Tolerability and pharmacokinetics in rats, T748 inhaled for 14 consecutive days; assay type: in vivo, rat; settings: T748, 0.6-18 μg/kg
Experimental: Body weights were recorded daily and organ weights (lungs, heart, liver) were measured 24 hr. after the last drug dose.

EP2 prostanoid receptor = target: T1, EP2 prostanoid receptor (Homo sapiens, UniProt P43116); assay: GloSensor cAMP assay in CHO-K1 cells co-transfected with the EP2 receptor; assay type: cell-based; settings: for Max cAMP level (Fold): CHO-K1 cells
T1 construct: host or cells: CHO-K1
T1 sequence (P43116 whole entry): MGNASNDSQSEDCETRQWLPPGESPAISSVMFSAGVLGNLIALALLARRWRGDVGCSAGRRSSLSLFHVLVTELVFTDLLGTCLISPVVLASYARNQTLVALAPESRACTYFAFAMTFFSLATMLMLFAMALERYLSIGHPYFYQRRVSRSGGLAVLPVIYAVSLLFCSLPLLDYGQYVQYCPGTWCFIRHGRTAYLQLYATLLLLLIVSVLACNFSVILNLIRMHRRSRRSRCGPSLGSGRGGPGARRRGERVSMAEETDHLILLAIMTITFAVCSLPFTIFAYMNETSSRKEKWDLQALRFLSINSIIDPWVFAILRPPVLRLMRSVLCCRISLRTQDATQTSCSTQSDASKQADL
From the text: cAMP is a second messenger involved in signal transduction of G-protein coupled receptors (GPCRs) acting through Gα-s and Gα-i proteins. Because the treprostinil receptor is a GPCR, the assay provides an indication of whether the respective prostacyclin compound (or metabolite thereof) binds its receptor and activates the GPCR cell signaling cascade. The GloSensorTM assay harnesses a genetically modified form of firefly luciferase into which a cAMP-binding protein moiety has been inserted. Upon binding of cAMP, a conformational change is induced leading to increased light output. The EP2 prostanoid receptor was co-transfected with the GloSensorTM plasmid (Promega) into CHO-K1 cells as follows. CHO-K1 cells were harvested when the monoloayer was at 50-90% confluence. First, cells were washed with 5 mL PBS. […] The media was aspirated, and the cell pellet was resuspended in 10 mL of growth media. Cell number was determined using a hemacytometer. Each well of a culture treated 96 well flat bottom plate (Costar, Cat #: 3917) was seeded with 1×10^4 cells per 100 μL antibiotic-free growth media. […] For small scale transfections of up to 20 wells, the pGLoSensor-22F cAMP plasmid (Promega, Cat #: E2301) (2 μg): (EP2) (10 ng) (Origene, Cat #: SC126558):pGEM-3Zf(+) (10 ng) (Promega, Cat #: P2271) ratio was diluted to a final concentration of 12.6 ng/μL (total plasmid) in Opti-MEM I reduced-serum medium (Life Technologies, Cat #: 1985062). Next, 6 μL of FuGENE HD transfection reagent (Promega, Cat #: E2311) was added to 160 μL of diluted plasmid and mixed carefully by gentle pipetting. The complex was incubated at room temperature for 0 to 10 minutes, and then 8 μL of the complex was added per well of a 96 well white assay plate (Costar, Cat #: 3917) and gently mixed without disturbing the cell monolayer. […] Following incubation, cells were treated and analyzed. For larger scale transfections, the aforementioned steps were scaled up accordingly, and cells were frozen following the last incubation. In order to prepare frozen transfected CHO-K1 cells, the media was aspirated from culture flasks and cells were rinsed with 5 mL PBS. […] Cell number was determined using a hemacytometer. The media was aspirated, and the cell pellet was resuspended in freezing media (Millipore, cat #: S-002-5F) at 2.5×10^6 cells/vial. Transfected cells were incubated overnight at -80° C. before transfer to liquid nitrogen for long term storage. […] In preparation for cAMP measurement, the cells were equilibrated with the GloSensor cAMP reagent prior to treatment. For equilibration, the medium was carefully removed from the individual well. Next, 100 μL of equilibration medium ([…] of Glosensor Reagent stock solution (Promega, Cat #: E291), 10% FBS (Hyclone, Cat #: SH30071.03) and 88% CO2 independent medium (Life Technologies, Cat #: 18045088)) was added per well of the 96-well plate, and added to the side of each well. The plate was then incubated for 2 hours at room temperature. A first pre-read measurement was taken using a microplate reader (MicroLumat Plus). Plates were incubated for an additional 10 minutes at room temperature, followed by a second pre-read measurement. […] Following treatment, each plate was read every 5 minutes for the duration of the assay using a microplate reader (MicroLumat Plus). In order to determine the fold change in cAMP relative to the control, the transfection efficiency was first determined by dividing the second pre-read measurement by the average of the corresponding pre-read measurements. Next, the normalized relative light units (RLUs) of the samples were determined by dividing the plate read measurement by the transfection efficiency. The fold change in cAMP relative to the control was then determined by dividing the normalized RLU of the samples by the normalized RLU of the control. The cAMP assay was validated using free treprostinil. […] Luminescence was then measured at room temperature. […]

[6] = Treprostinil pharmacokinetics in anaesthetised, ventilated rats after nebulized dosing; assay type: in vivo, rat; settings: nebulized TRE solution
Experimental: Male Sprague Dawley rats were anaesthetised and prepared with endotracheal tube for ventilation. The right femoral vein was cannulated to facilitate blood collections. Terminal lung samples were taken for analysis only 6 hours after dosing. […] Systemic blood pressure (mSAP), heart rate (HR), and arterial oxygen saturation (SaO2). Physiologic parameters were measured during normoxia (fraction of inspired oxygen [FrO2]=0.21, SaO2≈90%) and for 2 to 3 hours during hypoxia (FrO2=0.10, SaO2≈50%).

[7] = dog, in vivo
Experimental: Twelve beagle dogs of either sex were randomly assigned to different inhaled doses of treprostinil in PBS or the compound of Formula (A) wherein
Formulations were nebulized with an Aeroneb nebulizer (MMAD: 2.5-4 μm) delivered into a 500 ml expansion chamber. Formulations were nebulized for 2 min at ventilator settings of 90 ml/breath, 15 breaths/min (delivered volume=2.7 L) and collected on a filter. Drug amount (m) on the filter was measured by HPLC to calculate the concentration of drug delivered through the ventilator circuit (μg/L).
Dosimetry was performed in propofol-anesthetized dogs in which nebulized drugs were introduced into a mixing chamber interposed on the inspiratory limb of a canine respirator. Technical trials were performed before each experiment to measure the concentration of drug (μg/L) delivered for each breath. The inhaled drug dose (μ/kg) was calculated using the formula: Inhaled Drug Dose (μg/kg)=Drug Conc. (μg/L)×Minute Ventilation (L/min.)×Time (min.)/Body Weight (kg). […] Clinical signs were monitored over this 72 hr. period.
Dosimetry was performed in propofol-anesthetized, artificially ventilated dogs in which nebulized drugs were introduced into a mixing chamber interposed on the inspiratory limb of the respirator. […] Clinical signs (cough, rapid shallow breathing, emesis and pale gums) were also monitored.

[8] = test system: Cough Reflex in Guinea Pigs; assay: Cough reflex in guinea pigs (whole body plethysmograph); assay type: in vivo, guinea pig
Experimental: T623 has the following components:
Aerosols were generated with an Ultra-Neb Pro nebulizer (nebulizer output 0.36 mL/min.) that was mixed with inspired air delivered at a rate of 2 L/min. The PBS or drugs were delivered for 10 min. and the number of coughs recorded during and for 20 min. after the delivery. Coughs were detected by visual observations, plethysmograph recordings and cough sounds.

[9] = nebulized concentration of 30 μg/mL

- Rate of treprostinil alkyl ester conversion [1]: 49.8 nmOL/h * g of protein
- Rate of treprostinil alkyl ester conversion [2]: 32.5 nmOL/h * g of protein
- Rate of treprostinil alkyl ester conversion [4]: 17.3 nmOL/h * g of protein
Compound: CCCCCCCCOC(=O)COc1cccc2c1C[C@H]1C[C@@H](O)[C@H](CC[C@@H](O)CCCCC)[C@H]1C2 [Compound C8-TR, treprostinil octyl ester]
- Effect on cell proliferation, CHO-K1 Cells (0.195 μM-25 μM) (CHO-K1 cells): showed inhibition of cell proliferation
- Effect on cell proliferation, NR8383 Cells (0.195 μM-25 μM) [3]: showed some inhibition of cell proliferation

- Rate of treprostinil alkyl ester conversion [1]: 2.2 nmOL/h * g of protein
- Rate of treprostinil alkyl ester conversion [2]: 1.1 nmOL/h * g of protein
- Rate of treprostinil alkyl ester conversion [4]: 0.6 nmOL/h * g of protein
Compound: CCCCCCCCCCCCOC(=O)COc1cccc2c1C[C@H]1C[C@@H](O)[C@H](CC[C@@H](O)CCCCC)[C@H]1C2 [Compound C12-TR, dodecyl-treprostinil]
- Effect on cell proliferation, CHO-K1 Cells (0.195 μM-25 μM) (CHO-K1 cells): No detectable cell inhibition
- Effect on cell proliferation, NR8383 Cells (0.195 μM-25 μM) [3]: No detectable cell inhibition

Compound: CCCCCCCCCCCCCCCCOC(=O)COc1cccc2c1C[C@H]1C[C@@H](O)[C@H](CC[C@@H](O)CCCCC)[C@H]1C2 [Compound C16-TR, hexadecyl-treprostinil]
- tolerability, body weights and organ weights [5]: no tolerability issues or significant changes (relative to PBS) in body weights and organ weights; also recorded: well tolerated with no evidence of body weight and organ weight change
- ranking of activity of the treprostinil compounds (EP2 prostanoid receptor; kinetic profile, 10 μM and 5 μM, FIG. 21): C12-TR>C14-TR>5-nonanyl-TR>C16-TR

- time beyond which measurable levels of TRE were not seen in the blood plasma [6]: ≤ 4 h
- period over which plasma levels of treprostinil were sustained [7]: disappeared within a few hours
- exposure concentration consistently evoking cough ([8]; 1-300 μg/ml tested): ≥ 30 µg/mL
- cough bouts [8, 9]: 1-4
- cough response [8, 9]: consistent cough in 7 of 7 guinea pigs
- total number of coughs ([8]; nebulized concentration of 30 μg/mL, 10 min delivery + 20 min): 36±9 coughs
- cAMP levels sustained for (EP2 prostanoid receptor; 10 μM, composition, FIG. 3A): not exhibited
- Max cAMP level (Fold) (EP2 prostanoid receptor; Effect of nebulization (FIG. 6), head prints (5 μM)): ~15 Fold
- EC50 (EP2 prostanoid receptor; cAMP response in CHO-K1 cells, 4.5 hr incubation): 0.2 µM
- Max cAMP level (Fold) (EP2 prostanoid receptor; compositions shown in FIG. 3, 8 hours time course): ~16 Fold
- Max cAMP level (Fold) (EP2 prostanoid receptor; compositions shown in FIG. 4, 5 μM, 8 hours time course): ~14 Fold
Compound: CCCCC[C@H](O)CC[C@@H]1[C@H]2Cc3cccc(OCC(=O)O)c3C[C@H]2C[C@H]1O [Treprostinil, (1R,2R,3aS,9aS)-[[2,3,3a,4,9,9α-hexahydro-2-hydroxy-1-[(3S)-3-hydroxyoctyl]-1H-benz[f]inden-5-yl]oxy]acetic acid]
